Converted amounts (≈) assume the structure as drawn.
Assays:
[1] = tested on: THP-1; experiment: Inhibitory activity against lipopolysaccharide stimulated TNF-alpha production in THP-1 cells (human monocytic cells); format: functional, cell-based
[2] = Bioavailability in rat; format: ADME, organism-based; conditions: in vivo
[3] = Half life in rats; format: ADME; conditions: rat, in vivo
[4] = Metabolism measured as percent loss at 4 hours in rat hepatocytes; format: ADME, cell-based, Hepatocyte; conditions: read-out: Metabolism
[5] = Aqueous solubility […]; format: physicochemical, Rattus norvegicus; conditions: aqueous medium
[6] = Inhibition of Mitogen-activated protein kinase p38 alpha

IC50 [1] [nM] | SMILES | further results
41 | CC[C@H](C)Nc1nccc(-c2c(-c3ccc(F)cc3)c(=O)n(C)n2C)n1 | –
647 | C[C@H](Nc1nccc(-c2c(-c3ccc(F)cc3)c(=O)n(C)n2C)n1)c1cccnc1 | –
> 5000 | C[C@H](Nc1nccc(-c2c(-c3ccc(F)cc3)c(=O)n(C)n2C)n1)c1ccncc1 | –
288 | Cn1c(-c2ccnc(Oc3ccccc3)n2)c(-c2ccc(F)cc2)c(=O)n1C | –
1430 | COC[C@H](C)Nc1nccc(-c2c(-c3ccc(F)cc3)c(=O)n(C)n2C)n1 | –
1430 | C[C@H](Nc1nccc(-c2c(-c3ccc(F)cc3)c(=O)n(C)n2C)n1)c1ccccn1 | –
1430 | COCCn1c(-c2ccnc(Oc3ccccc3)n2)c(-c2ccc(F)cc2)c(=O)n1C | –
120 | CCn1c(-c2ccnc(N[C@@H](C)c3ccccc3)n2)c(-c2ccc(F)cc2)c(=O)n1CC | –
4220 | O=c1c(-c2ccc(F)cc2)c(-c2ccncc2)[nH]n1-c1ccc(Cl)cc1 | –
1070 | CCOCn1nc(-c2ccncc2)c(-c2ccc(F)cc2)n1 | IC50 [6]: 2430 nM

The next lines start with the compound.

SMILES | IC50 [1] [nM] | further results
C[C@H](Nc1nccc(-c2c(-c3ccc(F)cc3)c(=O)n(C3CCN(C)CC3)n2C)n1)c1ccccc1 | 15 | –
C[C@H](Nc1nccc(-c2c(-c3ccc(F)cc3)c(=O)n(C)n2C)n1)C(C)(C)O | 3970 | –
COC[C@H](C)Nc1nccc(-c2c(-c3ccc(F)cc3)c(=O)n(C3CCNCC3)n2C)n1 | 261 | –
COC[C@@H](C)Nc1nccc(-c2c(-c3ccc(F)cc3)c(=O)n(C)n2C2CCNCC2)n1.O=C(O)C(F)(F)F | 75 | bioavailability [2]: 15%; half-life [3]: 2.2 h; metabolised at 4 h [4]: 0%; solubility [5]: > 30000 µg/mL
C[C@H](Nc1nccc(-c2c(-c3ccc(F)cc3)c(=O)n(C)n2C)n1)c1ccccc1 | 13 | bioavailability [2]: 32%; half-life [3]: 1.1 h; metabolised at 4 h [4]: 44%; solubility [5]: 123 µg/mL (≈ 305 µM)
COCCn1c(-c2ccnc(N[C@@H](C)c3ccccc3)n2)c(-c2ccc(F)cc2)c(=O)n1C | 309 | metabolised at 4 h [4]: 30%; solubility [5]: 429 µg/mL (≈ 959 µM)
COCCn1c(-c2ccnc(N[C@H](C)COC)n2)c(-c2ccc(F)cc2)c(=O)n1C | 924 | –
C[C@H](Nc1nccc(-c2c(-c3ccc(F)cc3)c(=O)n(C3CCNCC3)n2C)n1)C(C)(C)O | 1080 | –
C[C@H](Nc1nccc(-c2c(-c3ccc(F)cc3)c(=O)n(C)n2C2CCNCC2)n1)c1ccccc1 | 155 | –
C[C@H](Nc1nccc(-c2c(-c3ccc(F)cc3)c(=O)n(C3CCNCC3)n2C)n1)c1ccccc1.O=C(O)C(F)(F)F | 32 | bioavailability [2]: 17%; half-life [3]: 3.2 h; metabolised at 4 h [4]: 32%; solubility [5]: 650 µg/mL
CC(=O)N1CCC(n2c(=O)c(-c3ccc(F)cc3)c(-c3ccnc(N[C@@H](C)c4ccccc4)n3)n2C)CC1 | 14 | –
Cn1c(=O)c(-c2ccc(F)cc2)c(-c2ccnc(Oc3ccccc3)n2)n1C1CCNCC1 | 2650 | –
Cn1c(-c2ccnc(Oc3ccccc3)n2)c(-c2ccc(F)cc2)c(=O)n1C1CCNCC1 | 1810 | –

Source: ChEMBL document CHEMBL1144379, “The development of monocyclic pyrazolone based cytokine synthesis inhibitors” (Bioorg Med Chem Lett, 2005)
